Source: US4542137A, “Alkylaminodesoxy-1.4;3.6-dianhydrohexitol nitrates substituted by purine bases and pharmaceutical compositions” (priority 1980, dated 1985)

Test system: mongrel dogs
Experiment: circulatory pharmacological effectiveness on narcotised dogs, intravenous
Assay type: in vivo, dog
[1] = dog i.v. ISDN/9c 1, 1d 0.5 mg/kg, 40 min
[2] = dog i.v. ISDN/9c 1, 1d 0.5 mg/kg, 50 min
[3] = dog i.v. ISDN/9c 1, 1d 0.5 mg/kg, 60 min
[4] = dog i.v. ISDN/9c 1, 1d 0.5 mg/kg, 90 min
[5] = dog i.v. ISDN/9c 1, 1d 0.5 mg/kg, 120 min
[6] = dog i.v. ISDN/9c 1, 1d 0.5 mg/kg, 150 min
[7] = dog i.v. ISDN/9c 1, 1d 0.5 mg/kg, 180 min
[8] = dog i.v., before administration (v)

CN(CCCn1cnc2c1c(=O)n(C)c(=O)n2C)[C@H]1CO[C@H]2[C@@H]1OC[C@@H]2O[N+](=O)[O-] [Example 9c, 5-[N-Methyl-N-(3-theophyllin-7-ylpropyl)-amino]-5-desoxy-1.4;3.6-dianhydro-L-iditol 2-nitrate]
BFFem: blood flow in the A. femoralis referred to 20 kg body weight [1]: 44.2 mL/min
HLL: heart capacity left, referred to 20 kg body weight [1]: 0.60 W
HLR: heart capacity right, referred to 20 kg body weight [1]: 63.2 mW
HZV: heart minute volume, referred to 20 kg body weight [1]: 2.71 L/min
LVEDP: end diastolic pressure in the left ventricle [1]: 5.62 mm.Hg
SV: beat volume, referred to 20 kg body weight [1]: 24.9 mL
WAP: pulmonalis resistance, referred to 20 kg body weight [1]: 0.30 U
WFem: moralis resistance, referred to 20 kg body weight [1]: 0.32 KU
WTP: total peripheral resistance, referred to 20 kg body weight [1]: 5.05 U
dp/dt: rate of pressure increase in the left ventricle [1]: 2203.1 mm.Hg/sec
APdiast: diastolic aorta pressure [2]: 88.2 mm.Hg
APsyst: systolic aorta pressure [2]: 142.5 mm.Hg
BFFem: blood flow in the A. femoralis referred to 20 kg body weight [2]: 26.6 mL/min
HF: heart frequency [2]: 105.5
HLL: heart capacity left, referred to 20 kg body weight [2]: 0.61 W
HLR: heart capacity right, referred to 20 kg body weight [2]: 61.7 mW
HZV: heart minute volume, referred to 20 kg body weight [2]: 2.68 L/min
LVEDP: end diastolic pressure in the left ventricle [2]: 6.19 mm.Hg
SV: beat volume, referred to 20 kg body weight [2]: 25.5 mL
WFem: moralis resistance, referred to 20 kg body weight [2]: 0.31 KU
WTP: total peripheral resistance, referred to 20 kg body weight [2]: 5.24 U
dp/dt: rate of pressure increase in the left ventricle [2]: 2165.6 mm.Hg/sec
APdiast: diastolic aorta pressure [3]: 88.2 mm.Hg
APsyst: systolic aorta pressure [3]: 144.7 mm.Hg
BFFem: blood flow in the A. femoralis referred to 20 kg body weight [3]: 45.8 mL/min
HF: heart frequency [3]: 103.2
HLL: heart capacity left, referred to 20 kg body weight [3]: 0.59 W
HLR: heart capacity right, referred to 20 kg body weight [3]: 59.1 mW
HZV: heart minute volume, referred to 20 kg body weight [3]: 2.59 L/min
SV: beat volume, referred to 20 kg body weight [3]: 25.1 mL
WAP: pulmonalis resistance, referred to 20 kg body weight [3]: 0.27 U
WFem: moralis resistance, referred to 20 kg body weight [3]: 0.32 KU
WTP: total peripheral resistance, referred to 20 kg body weight [3]: 5.48 U
dp/dt: rate of pressure increase in the left ventricle [3]: 2109.4 mm.Hg/sec
APdiast: diastolic aorta pressure [4]: 90.9 mm.Hg
APsyst: systolic aorta pressure [4]: 148.1 mm.Hg
BFFem: blood flow in the A. femoralis referred to 20 kg body weight [4]: 41.7 mL/min
HF: heart frequency [4]: 98.0
HLL: heart capacity left, referred to 20 kg body weight [4]: 0.56 W
HLR: heart capacity right, referred to 20 kg body weight [4]: 59.2 mW
HZV: heart minute volume, referred to 20 kg body weight [4]: 2.42 L/min
SV: beat volume, referred to 20 kg body weight [4]: 24.8 mL
WAP: pulmonalis resistance, referred to 20 kg body weight [4]: 0.33 U
WFem: moralis resistance, referred to 20 kg body weight [4]: 0.36 KU
WTP: total peripheral resistance, referred to 20 kg body weight [4]: 6.00 U
dp/dt: rate of pressure increase in the left ventricle [4]: 1987.5 mm.Hg/sec
APdiast: diastolic aorta pressure [5]: 90.9 mm.Hg
APsyst: systolic aorta pressure [5]: 150.0 mm.Hg
BFFem: blood flow in the A. femoralis referred to 20 kg body weight [5]: 39.9 mL/min
HF: heart frequency [5]: 96.7
HLL: heart capacity left, referred to 20 kg body weight [5]: 0.55 W
HLR: heart capacity right, referred to 20 kg body weight [5]: 60.8 mW
HZV: heart minute volume, referred to 20 kg body weight [5]: 2.39 L/min
LVEDP: end diastolic pressure in the left ventricle [5]: 7.73 mm.Hg
SV: beat volume, referred to 20 kg body weight [5]: 24.7 mL
WAP: pulmonalis resistance, referred to 20 kg body weight [5]: 0.35 U
WFem: moralis resistance, referred to 20 kg body weight [5]: 0.38 KU
WTP: total peripheral resistance, referred to 20 kg body weight [5]: 6.07 U
dp/dt: rate of pressure increase in the left ventricle [5]: 1837.5 mm.Hg/sec
APdiast: diastolic aorta pressure [6]: 88.7 mm.Hg
APsyst: systolic aorta pressure [6]: 148.7 mm.Hg
BFFem: blood flow in the A. femoralis referred to 20 kg body weight [6]: 39.0 mL/min
HF: heart frequency [6]: 98.2
HLL: heart capacity left, referred to 20 kg body weight [6]: 0.54 W
HLR: heart capacity right, referred to 20 kg body weight [6]: 64.4 mW
HZV: heart minute volume, referred to 20 kg body weight [6]: 2.38 L/min
LVEDP: end diastolic pressure in the left ventricle [6]: 7.87 mm.Hg
SV: beat volume, referred to 20 kg body weight [6]: 24.3 mL
WAP: pulmonalis resistance, referred to 20 kg body weight [6]: 0.40 U
WFem: moralis resistance, referred to 20 kg body weight [6]: 0.37 KU
WTP: total peripheral resistance, referred to 20 kg body weight [6]: 5.92 U
dp/dt: rate of pressure increase in the left ventricle [6]: 1809.4 mm.Hg/sec
APdiast: diastolic aorta pressure [7]: 87.2 mm.Hg
APsyst: systolic aorta pressure [7]: 148.1 mm.Hg
BFFem: blood flow in the A. femoralis referred to 20 kg body weight [7]: 42.8 mL/min
HF: heart frequency [7]: 100.0
HLL: heart capacity left, referred to 20 kg body weight [7]: 0.55 W
HLR: heart capacity right, referred to 20 kg body weight [7]: 67.5 mW
HZV: heart minute volume, referred to 20 kg body weight [7]: 2.47 L/min
LVEDP: end diastolic pressure in the left ventricle [7]: 7.87 mm.Hg
SV: beat volume, referred to 20 kg body weight [7]: 24.8 mL
WAP: pulmonalis resistance, referred to 20 kg body weight [7]: 0.41 U
WFem: moralis resistance, referred to 20 kg body weight [7]: 0.33 KU
WTP: total peripheral resistance, referred to 20 kg body weight [7]: 5.61 U
dp/dt: rate of pressure increase in the left ventricle [7]: 1743.7 mm.Hg/sec
APdiast: diastolic aorta pressure [8]: 78.7 mm.Hg
APsyst: systolic aorta pressure [8]: 147.2 mm.Hg
BFFem: blood flow in the A. femoralis referred to 20 kg body weight [8]: 48.0 mL/min
HF: heart frequency [8]: 102.5
HLL: heart capacity left, referred to 20 kg body weight [8]: 0.56 W
HLR: heart capacity right, referred to 20 kg body weight [8]: 63.08 mW
HZV: heart minute volume, referred to 20 kg body weight [8]: 2.62 L/min
PAP: average pressure in the A. pulmonalis [8]: 13.6 mm.Hg
WFem: moralis resistance, referred to 20 kg body weight [8]: 0.29 KU
WTP: total peripheral resistance, referred to 20 kg body weight [8]: 5.15 U
dp/dt: rate of pressure increase in the left ventricle [8]: 1837.5 mm.Hg/sec
BFFem: blood flow in the A. femoralis referred to 20 kg body weight (dog, in vivo): 41.9 mL/min
PRV: pressure in the right atrium (dog, in vivo, iv): 3.0
LVEDP: end diastolic pressure in the left ventricle (iv): 7.60 mm.Hg
SV: beat volume, referred to 20 kg body weight (iv): 25.9 mL
WAP: pulmonalis resistance, referred to 20 kg body weight (iv): 0.29 U
